Measured values published in patent US7629140B2, “Assay for cytochrome P450 isoform 2C9” (Istituto di Richerche di Biologia Molecolare P. Angeletti …, priority 2004, dated 2009).

Legend:
CYP2C9 [1] = biological target: T1, CYP2C9 (Homo sapiens, UniProt P11712); assay: Radiometric CYP2C9 assay using [4′-3H]-diclofenac: formation of [3H]-H2O in pooled human liver microsomes
Method: (§1) Radiometric CYP2C9 assays using [4′-^3H]-diclofenac. […] (Woburn, Mass.). Inhibitors were added to the reaction mixture from stock solutions in DMSO/acetonitrile/water (35:25:40, v/v), giving final solvent concentrations of 0.7% DMSO and 0.5% acetonitrile. No inhibitor controls contained an equivalent amount of vehicle. Following preincubation for 10 minutes at 37° C., reactions were started by addition of 1 mM NADPH and an NADPH regenerating system containing 5 mM glucose-6-phosphate, 3 mM MgCl2, and 1 U/mL glucose-6-phosphate dehydrogenase. Assays were conducted for 10 minutes at 37° C. and stopped by addition of HCl to a final concentration of 0.1 N. Plates were then centrifuged for 10 minutes in a microplate rotor and supernatants loaded into the wells of a preconditioned 10 mg OASIS 96-well HLB plate. OASIS HLB 96 well extraction plates and vacuum manifold are available from Waters Corp., Newcastle, Del. Vacuum was applied and the void volume collected in the collection plate. Then, 75 μL of water was added, vacuum was applied again, and the wash was collected into the same plate. Pooled void volume and water wash were transferred into scintillation vials and counted in a beta-scintillation counter. Alternatively, aliquots were counted in 24- or 96-well scintillation plates using a TOPCOUNT scintillation counter (Packard, Perkin Elmer, Boston, Mass.). For the calculation of enzyme activity, product counts were corrected by subtraction of counts obtained in control incubations performed in the absence of NADPH regenerating system.
Calculation of the apparent rate of formation of unlabelled product from tracer competition experiments. When assays are performed using a fixed amount of [4′-^3H]-diclofenac and varying concentrations of unlabelled diclofenac, the velocity of formation of unlabelled product, v, is given by: v=v*/SAP equation 3 where v* is the velocity of formation of tritiated water. Substituting from equation 2, we obtain: v=v*x(^TV/K)/SA0 equation 4 Defining v′ as the velocity of formation of unlabelled product divided by the kinetic isotope effect, i.e. v′=v/(^TV/K) equation 5 we obtain v′=v*/SA0 equation 6 Without using the known ^TV/K ratio (which would be tautological, since it was derived from SAP), v′, the apparent formation rate of unlabelled product, can be calculated. When plotted against the substrate concentration, S, and fitted to the Hill equation (equation 7), V′max, S50, the substrate concentration at 50%, and n, the Hill coefficient, can be derived.

CYP2C9 [2] = biological target: T1, CYP2C9; assay: in vitro
Method: as §1
Quantification of 4′hydroxydiclofenac. Aliquots of the assay reaction mixture and of metabolite standard curves were analyzed by HPLC using an Agilent HP1100 liquid chromatograph (Agilent Technologies) equipped with a CTC Analytics PAL Autosampler (HTS PAL; CTC Analytics AG, Switzerland). Chromatography was performed on a XTERRA MS C18 column (4.6 mm×5 cm; 5 μm; Waters Corp., Medford, Mass.) at a flow rate of 2 mL/min, using a mobile phase consisting of a mixture of 0.1% formic acid in water (A) and 0.1% formic acid in acetonitrile (B) (linear gradient 0 to 0.5 min, 10% B; 3.0 min 90% B, 3.5 min 90% B, 3.6 min 10% B; the system was equilibrated for 1.4 minutes at 10% B prior to the next injection). The eluate was diverted to waste for the first minute, and then to a Sciex API-3000 triple quadruple mass spectrometer (available, for example, from Perkin Elmer, Boston, Mass.) with a Turbo Ionspray ionization source operated in the positive ion mode. […] Metabolite concentrations were determined by weighted linear least-squares regression analysis, using Analyst Quantitation Wizard software version 1.2 (Applied Biosystems, Foster City, Calif.).
To compare IC50 values of several known CYP2C9 inhibitors obtained in the radiometric assay with those obtained by conventional HPLC-mass spectrometric assay, reactions were performed in the absence or presence of different concentrations of known inhibitors. Tritiated water formation and formation of unlabelled reaction product 4′OH-diclofenac were determined in the same reaction mixture. The 4′-OH-diclofenac was quantified by HPLC coupled to triple quadruple mass spectrometric analysis.

CYP2C9 [3] = biological target: T1, CYP2C9; conditions: sulfaphenazole at 10 μM, 10 μM unlabelled diclofenac, FIG. 12
CYP2C9 [4] = biological target: T1, CYP2C9; conditions: Cohen et al.; cited from earlier work

T1 sequence (P11712 whole entry): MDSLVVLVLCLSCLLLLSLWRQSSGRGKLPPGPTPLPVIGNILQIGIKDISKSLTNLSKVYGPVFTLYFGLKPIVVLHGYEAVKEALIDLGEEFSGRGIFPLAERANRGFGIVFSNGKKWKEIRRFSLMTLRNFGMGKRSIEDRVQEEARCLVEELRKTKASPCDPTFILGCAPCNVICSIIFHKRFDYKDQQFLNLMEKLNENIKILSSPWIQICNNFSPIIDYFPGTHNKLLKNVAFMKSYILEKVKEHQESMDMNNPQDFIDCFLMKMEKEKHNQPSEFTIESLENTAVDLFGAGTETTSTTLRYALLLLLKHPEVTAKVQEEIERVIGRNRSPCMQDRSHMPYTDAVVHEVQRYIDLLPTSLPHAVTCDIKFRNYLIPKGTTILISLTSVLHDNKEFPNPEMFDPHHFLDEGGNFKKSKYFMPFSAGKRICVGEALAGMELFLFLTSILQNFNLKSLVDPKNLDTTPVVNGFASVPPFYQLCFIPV

Row | SMILES | IC50 (CYP2C9 [1]) | Ratio (radiometric/conventional) (CYP2C9 [1]) | IC50 (CYP2C9 [2]) | other results
1 | Cc1nc2c([nH]1)c(=O)n(C)c(=O)n2Cc1ccco1 [furafylline] | – | – | – | effect on NADPH-dependent formation of tritiated water from [4′-3H]-diclofenac in HLM (in words) (CYP2C9 [1]; human, microsomes): none of these agents significantly affected
2 | CC(=O)[C@H]1CC[C@H]2[C@@H]3CCC4=CC(=O)CC[C@]4(C)[C@H]3CC[C@]12C [Progesterone] | 25.2 ± 3.1 µM | 1.26 | 20 ± 4.6 µM | –
3 | COc1ccc2c(c1)c(CC(=O)O)c(C)n2C(=O)c1ccc(Cl)cc1 [Indomethacin] | 54.8 ± 8.1 µM | 0.96 | 57 ± 10.5 µM | –
4 | CCCCC1C(=O)N(c2ccccc2)N(c2ccccc2)C1=O [Phenylbutazone] | 41.4 ± 6.5 µM | 0.94 | 44.2 ± 2.2 µM | –
5 | Clc1ccc(COC(Cn2ccnc2)c2ccc(Cl)cc2Cl)c(Cl)c1 (centres unmarked) [Miconazole] | 0.2 ± 0.02 µM | 1.54 | 0.13 ± 0.03 µM | –
6 | Cc1ccc(C)c(OCCCC(C)(C)C(=O)O)c1 [Gemfibrozil] | 27.7 ± 6.9 µM | 0.71 | 39.1 ± 7.1 µM | –
7 | COCC(=O)O[C@]1(CCN(C)CCCc2nc3ccccc3[nH]2)CCc2cc(F)ccc2[C@@H]1C(C)C [Mibefradil] | 40 ± 5 µM | 0.69 | 57.6 ± 9.9 µM | –
8 | O=C(O)Cc1ccccc1Nc1c(Cl)cccc1Cl [diclofenac] | – | – | – | ratio between V′max and Vmax (CYP2C9 [1]): 0.9; Hill coefficient n (v′ vs. S) (CYP2C9 [1]; human, 10 min, pH 7.6): 1.15±0.05; V′max (apparent maximal rate of product formation) (CYP2C9 [1]; human, 10 min, pH 7.6): 1.5 ± 0.1 nmol/min/mg; Km at 10 min (CYP2C9 [1]; human, microsomes, pH 7.6): 6.8 ± 1 µM; Hill coefficient of 4′-hydroxydiclofenac formation (CYP2C9 [2]; human, 10 min, pH 7.6): 1.1±0.1; Km at 10 min (CYP2C9 [2]; human, microsomes, pH 7.6): 6.2 ± 0.9 µM; Km (CYP2C9 [2]; human, pH 7.6): ~6 µM
9 | Nc1ccc(S(=O)(=O)Nc2ccnn2-c2ccccc2)cc1 [Sulfaphenazole] | – | 0.96 | – | effect on formation of tritiated water from [4′-3H]diclofenac in human hepatocytes (in words) (CYP2C9 [3]): almost totally inhibited; effect on NADPH-dependent formation of tritiated water from [4′-3H]-diclofenac in HLM (in words) (CYP2C9 [1]; human, microsomes): inhibited
10 | COc1ccc2[nH]c([S+]([O-])Cc3ncc(C)c(OC)c3C)nc2c1 (centres unmarked) [Omeprazole] | 43.8 ± 10.4 µM | 1.04 | 42.3 ± 15.3 µM | –
11 | CC(=O)CC(c1ccccc1)c1c(O)c2ccccc2oc1=O (centres unmarked) [warfarin] | – | – | – | inhibitor of CYP2C9 when probed with the fluorogenic substrate MFC (CYP2C9 [4]): not
12 | CC(=O)C[C@@H](c1ccccc1)c1c(O)c2ccccc2oc1=O [S-Warfarin] | – | – | – | IC50 (CYP2C9 [1]; read-out: IC50 (μM) radiometric, HLM, formation rate of [3H]-H2O from [4′-3H]-diclofenac, mean ± SEM, n = 2): 14.6 ± 2.3 µM; IC50 (CYP2C9 [2]; read-out: IC50 (μM) Conventional, HLM, formation rate of 4′-hydroxydiclofenac by LC-MS/MS, same reaction mixture, mean ± SEM, n = 2): 8.7 ± 3.6 µM
